Tested on: mixed bacterial inoculum and mixed fungal inoculum
Test: challenge test, overall result (bacteria and fungi)
Assay type: cell-based
Conditions: anionic xanthan gum lotion dosed with the substance(s)
Experimental: Preservative activity in representative formulations was evaluated by using a modification of the Personal Care Products Council (PCPC) protocol (Machtiger, et al. 2001. Determination of the Efficacy of Preservation of Non-Eye Area Water Miscible Cosmetic and Toiletry Formulations: Collaborative Study. J of AOAC International. 84:1, 101-109). The evaluation was conducted using a four week, two-cycle microbial preservative efficacy test (challenge test) at 25° C. to determine the preservative efficacy of each treatment.
Xanthan gum is commonly used as a natural rheological modifier in personal care products. The formulation below was made by heating the aqueous (A) and oil (B) phases separately to 75-80° C. The oil phase was then poured into the aqueous phase and mixed by an overhead mixer and a homogenizer. The oil-in-water emulsion was cooled to room temperature. Sodium hydroxide solution was used to adjust the pH.
Lotion formulation samples were dosed with certain test materials as shown further below and mixed thoroughly at room temperature, and the formulation samples were divided into two separate aliquots of 5 gram each. One aliquot was inoculated with 50 μl of a diluted bacterial pool, the second aliquot was inoculated with 50 μl of a diluted fungal pool as described below. Unpreserved product samples were included in the test as a growth control.
A mixed bacterial inoculum was prepared using 24-hour cultures of the test bacteria (Table 2) grown in trypticase soy broth (TSB). Equal volumes of the bacterial test strains were combined and diluted one to ten in phosphate buffer to obtain an inoculum of approximately 5×10^7 to 5×10^8 colony forming units per ml (cfu/ml). The test samples were inoculated with 1% of the mixed bacterial inoculum. A mixed fungal inoculum was prepared using cell suspensions of the yeast Candida albicans ATCC #10231 and the mold Aspergillus brasiliensis ATCC #16404 in phosphate buffer. Equal volumes of the fungal test strains were combined and diluted one to ten with phosphate buffer to obtain an inoculum of approximately 5×10^6 to 5×10^7 cfu/ml. The test samples were inoculated with […] of the mixed fungal inoculum.
The samples were subjected to microbial challenge at time zero and inoculated a second time after seven days. The number of microorganisms added to each sample was determined by a standard Most Probable Number (MPN) determination in Trypticase Soy Broth (TSB) for bacteria and Potato Dextrose Broth (PDB) for fungi. Samples were incubated at 25° C. for the test duration of four weeks. Samples were monitored for bacterial and fungal contamination after 2, 7, 14, 21, and 28 days. Samples challenged with bacteria were streak-plated onto Trypticase Soy Agar (TSA) and incubated at 30° C. for 24 hours. Samples challenged with fungi were streak-plated onto Potato Dextrose Agar (PDA) and incubated at 25° C. for 7 days. After incubation, plates were given a Growth Rating to determine the colony forming units per gram (CFU/g) present in each test sample at the testing time point. As is used by various challenge test methods, the passing criteria is more stringent for bacteria than for fungi. […]
For bacteria challenge testing, a composition was scored as “Pass” if the composition obtained a growth rating score caused by bacteria of 1 or less at days 21-28 of the testing period and was scored as “Fail” if the composition obtained a growth rating score caused by bacteria of 2 or more at days 21-28 of the testing period. […]

Compound	challenge test outcome (in words)
N=C(NCCCCCCNC(=N)NC(=N)Nc1ccc(Cl)cc1)NC(=N)Nc1ccc(Cl)cc1.O=C(O)[C@H](O)[C@@H](O)[C@H](O)[C@H](O)CO.O=C(O)[C@H](O)[C@@H](O)[C@H](O)[C@H](O)CO [CHD.G, Chlorhexidine digluconate]	none of the lotion formulations passed the challenge test
CCCCCCCC(=O)OCC(O)CO (centres unmarked) [GC, Glyceryl caprylate]	none of the lotion formulations passed the challenge test
CC(=O)c1ccc(O)cc1 [HAP, 4-Hydroxyacetophenone]	none of the lotion formulations passed the challenge test
CCCCCCCCCCCC(=O)N[C@@H](CCCN=C(N)N)C(=O)OCC.Cl [LAE, Ethyl lauroyl arginate HCl]	none of the lotion formulations passed the challenge test
O=C(O)c1ccccc1 [NaBz, Sodium benzoate]	none of the lotion formulations passed the challenge test

Source: patent US20260306377A1, “ANTIMICROBIAL COMPOSITIONS CONTAINING A CATIONIC ANTIMICROBIAL AND AN ACIDIC GLYCOLOPID” (LANXESS CORPORATION, priority 2023, published 2026)
